Test results reported in ChEMBL document CHEMBL3112503, “New class of azaheptapyridine FPT inhibitors as potential cancer therapy agents” (Bioorg Med Chem Lett, 2014).
The source made the active and inactive calls. No cut-off for these calls is given here.

What was measured:
[1] = biological target: Protein farnesyltransferase (Homo sapiens, UniProt P49354+P49356); test: Inhibition of FTase (unknown origin) assessed as transfer of [H3]farnesyl from [H3]farnesyl pyrophosphate to trichloroacetic acid-precipitable HaRas-CVLS; assay type: protein-complex assay
NIH-H = test: Inhibition of inhibit anchorage-independent growth of […] NIH-H cells in soft agar by colony forming assay; assay type: functional, cell-based
Mus musculus [2] = test: Antitumor activity in wap-ras transgenic mouse assessed as tumor stasis at 10 mg/kg bid for 4 weeks; assay type: functional, organism-based; design: dose 10 mg/kg
[3] = Cmax in dog at 25 mg/kg, po; assay type: ADME, organism-based, Canis lupus familiaris; design: dose 25 mg/kg, route oral; conditions: in vivo
Mus musculus [4] = test: Antitumor activity in wap-ras transgenic mouse assessed as tumor regression at 25 to 40 mg/kg bid for 4 weeks; assay type: functional, organism-based
[5] = AUC in monkey at 25 mg/kg, po; assay type: ADME, organism-based, Macaca mulatta; design: dose 25 mg/kg, route oral; conditions: rhesus monkey, plasma
[6] = Cmax in monkey at 25 mg/kg, po; assay type: ADME, organism-based, Macaca mulatta; design: dose 25 mg/kg, route oral; conditions: rhesus monkey, in vivo
[7] = Oral bioavailability in monkey at 5 mg/kg; assay type: ADME, organism-based, Macaca mulatta; conditions: rhesus monkey, in vivo
Mus musculus [8] = test: Antitumor activity in wap-ras transgenic mouse assessed as tumor growth inhibition and tumor regression administered bid for 4 weeks; assay type: functional, organism-based
Mus musculus [9] = test: Toxicity in wap-ras transgenic mouse assessed as change in body weight at 3 to 40 mg/kg bid for 4 weeks; assay type: organism-based; design: dose 3-40 mg/kg; conditions: in vivo, 672 h
[10] = Cmax in mouse at 25 mg/kg, po; assay type: ADME, organism-based; design: dose 25 mg/kg, route oral; conditions: in vivo
[11] = Oral bioavailability in mouse at 25 mg/kg; assay type: ADME, organism-based; conditions: in vivo
[12] = AUC in dog at 25 mg/kg, po; assay type: ADME, organism-based, Canis lupus familiaris; design: dose 25 mg/kg, route oral; conditions: plasma
[13] = AUC in mouse at 25 mg/kg, po; assay type: ADME, organism-based; design: dose 25 mg/kg, route oral; conditions: plasma
[14] = Cmax in rat at 10 mg/kg, po; assay type: ADME, organism-based; design: dose 10 mg/kg, route oral; conditions: in vivo
Mus musculus [15] = test: Antitumor activity in wap-ras transgenic mouse assessed as tumor growth inhibition at 3 mg/kg bid for 4 weeks; assay type: functional, organism-based; design: dose 3 mg/kg
[16] = AUC in rat at 10 mg/kg, po; assay type: ADME, organism-based; design: dose 10 mg/kg, route oral; conditions: plasma
[17] = Oral bioavailability in rat at 10 mg/kg; assay type: ADME, organism-based; conditions: in vivo
[18] = Oral bioavailability in dog at 5 mg/kg; assay type: ADME, organism-based, Canis lupus familiaris; conditions: in vivo
Cytochrome P450 3A4 = Cytochrome P450 3A4 (Homo sapiens, UniProt P08684); test: Inhibition of CYP3A4 (unknown origin); assay type: ADME
Sequence of Cytochrome P450 3A4 (P08684 whole entry): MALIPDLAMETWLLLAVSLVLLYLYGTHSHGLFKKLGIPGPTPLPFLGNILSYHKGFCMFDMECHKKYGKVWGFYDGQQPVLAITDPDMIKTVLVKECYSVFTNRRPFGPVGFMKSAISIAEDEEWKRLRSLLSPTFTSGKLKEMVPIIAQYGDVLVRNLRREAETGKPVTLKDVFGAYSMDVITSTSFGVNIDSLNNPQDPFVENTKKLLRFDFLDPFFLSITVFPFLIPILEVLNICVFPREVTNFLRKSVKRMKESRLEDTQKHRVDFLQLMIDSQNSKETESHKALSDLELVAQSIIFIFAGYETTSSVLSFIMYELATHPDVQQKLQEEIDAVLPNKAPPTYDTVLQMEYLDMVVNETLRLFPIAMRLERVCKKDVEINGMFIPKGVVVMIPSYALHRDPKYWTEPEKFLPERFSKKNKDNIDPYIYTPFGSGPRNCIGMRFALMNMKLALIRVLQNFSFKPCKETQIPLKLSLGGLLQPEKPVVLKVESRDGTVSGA

[19] = Ratio of IC50 for […] NIH-H cells to IC50 for FTase (unknown origin)
[20] = AUC (0 to 6 hrs) in rat at 10 mg/kg; assay type: ADME, organism-based; design: time < 6 hr, dose 10 mg/kg; conditions: plasma

For `Cn1cncc1[C@@H](O)C1=Cc2cccnc2[C@@H](N2CCN(C(=O)OC(C)(C)C)CC2)c2ccc(Cl)cc21`, which IC50 [1] is on record?
Its IC50 is 12 nM.

Which results are given for `Cn1cncc1[C@](C)(O)C1=Cc2cccnc2[C@@H](N2CCN(C(=O)OC3CCCCC3)CC2)c2ccc(Cl)cc21`?
IC50 (NIH-H): 6.2 nM; IC50 [1]: 1.4 nM

Which results are given for `Cn1cncc1[C@](C)(O)C1=Cc2cccnc2[C@@H](N2CCN(C(=O)Nc3ccc(C#N)cc3)CC2)c2ccc(Cl)cc21`?
IC50 (NIH-H): 4 nM; IC50 [1]: 1.8 nM

What does the source list for `Cn1cncc1[C@@](C)(O)C1=Cc2cccnc2[C@@H](N2CCN(C(=O)Nc3ccc(C#N)cc3)CC2)c2ccc(Cl)cc21`?
IC50 (NIH-H): 2 nM; IC50 [1]: 0.8 nM

For `Cn1cncc1C(=O)[C@@]12C[C@@H]1c1cccnc1[C@@H](N1CCN(C(=O)OC(C)(C)C)CC1)c1ccc(Cl)cc12`, which IC50 (NIH-H) is on record?
Its IC50 is 8 nM.

And the IC50 [1]?
The IC50 was 3.2 nM.

What does the source list for `CC(C)OC(=O)N1CCN([C@H]2c3ccc(Cl)cc3C([C@@](C)(O)c3cncn3C)=Cc3cccnc32)CC1`?
IC50 (NIH-H): 10 nM; IC50 [1]: 0.6 nM

Which IC50 (NIH-H) does the source give for `Cn1cncc1[C@](C)(O)C1=Cc2cccnc2[C@@H](N2CCN(C(=O)OC3(C)CCCCC3)CC2)c2ccc(Cl)cc21` here?
The IC50 was 45 nM.

With `Cn1cncc1[C@@](C)(O)C1=Cc2cccnc2[C@@H](N2CCN(C(=O)OC3CCCCC3)CC2)c2ccc(Cl)cc21` as the molecule, how does the IC50 (NIH-H) read?
The IC50 was 3.5 nM.

What about the IC50 [1] of the same molecule?
The IC50 was 1.7 nM.

For `Cn1cncc1[C@@](C)(O)C1=Cc2cccnc2[C@@H](N2CCN(C(=O)OC3(C)CCCCC3)CC2)c2ccc(Cl)cc21`, which IC50 (NIH-H) is on record?
The IC50 was 2 nM.

What about the IC50 [1] of the same molecule?
Its IC50 is 5.5 nM.

What does the source list for `Cn1cncc1[C@](C)(O)C1=Cc2cccnc2[C@@H](N2CCN(C(N)=O)CC2)c2ccc(Cl)cc21`?
IC50 (NIH-H): > 100 nM; IC50 [1]: > 20 nM

For `CCC(O)(C1=Cc2cccnc2[C@@H](N2CCN(C(=O)OC(C)(C)C)CC2)c2ccc(Cl)cc21)c1cncn1C` (mixture of isomers), which IC50 (NIH-H) is on record?
Its IC50 is 50 nM.

And the IC50 [1]?
Its IC50 is 5 nM.

With `Cn1cncc1[C@@](C)(O)C1=Cc2cccnc2[C@@H](N2CCN(C(=O)OC3CCCC3)CC2)c2ccc(Cl)cc21` as the molecule, how does the IC50 (NIH-H) read?
The IC50 was 2 nM.

And the IC50 [1]?
Its IC50 is 0.6 nM.

For `Cn1cncc1[C@@](C)(O)C1=Cc2cccnc2[C@@H](N2CCN(C(=O)NC3CCCCC3)CC2)c2ccc(Cl)cc21`, which IC50 (NIH-H) is on record?
Its IC50 is 0.9 nM.

What about the IC50 [1] of the same molecule?
Its IC50 is 0.1 nM.

With `Cn1cncc1[C@H](O)C1=Cc2cccnc2[C@@H](N2CCN(C(=O)OC(C)(C)C)CC2)c2ccc(Cl)cc21` as the molecule, how does the IC50 (NIH-H) read?
Its IC50 is 0.5 nM.

And the IC50 [1]?
The IC50 was 0.3 nM.

Which results are given for `Cn1cncc1C(C)(O)C1=Cc2cccnc2[C@@H](N2CCN(C(=O)OC(C)(C)C)CC2)c2ccc(Cl)cc21` (mixture of isomers)?
IC50 (NIH-H): 10 nM; IC50 [1]: 1.8 nM

With `Cn1cncc1C(=O)[C@]12C[C@H]1c1cccnc1[C@@H](N1CCN(C(=O)OC(C)(C)C)CC1)c1ccc(Cl)cc12` as the molecule, how does the IC50 (NIH-H) read?
The IC50 was 6 nM.

What about the IC50 [1] of the same molecule?
The IC50 was 3.2 nM.

What does the source list for `Cn1cncc1C(C)(O)[C@]12C[C@H]1c1cccnc1[C@@H](N1CCN(C(=O)OC(C)(C)C)CC1)c1ccc(Cl)cc12` (stereo partly specified)?
IC50 (NIH-H): > 100 nM; IC50 [1]: > 18 nM

What does the source list for `Cn1cncc1[C@@](C)(O)C1=Cc2cccnc2[C@@H](N2CCN(C(=O)NC(C)(C)C)CC2)c2ccc(Cl)cc21`?
IC50 (NIH-H): 5 nM; IC50 [1]: 0.9 nM

With `Cn1cncc1[C@@](C)(O)C1=Cc2cccnc2[C@@H](N2CCN(C(N)=O)CC2)c2ccc(Cl)cc21` as the molecule, how does the IC50 (NIH-H) read?
The IC50 was over 100 nM.

What about the IC50 [1] of the same molecule?
The IC50 was 0.1 nM.

With `Cn1cncc1[C@](C)(O)C1=Cc2cccnc2[C@@H](N2CCN(C(=O)NC(C)(C)C)CC2)c2ccc(Cl)cc21` as the molecule, how does the IC50 (NIH-H) read?
The IC50 was 37 nM.

And the IC50 [1]?
The IC50 was 0.7 nM.

For `Cn1cncc1[C@@](C)(O)C1=Cc2cccnc2[C@@H](N2CCN(C(=O)OC(C)(C)C)CC2)c2ccc(Cl)cc21`, which Activity (Mus musculus [2]) is on record?
Its Activity is “Active”.

What about the Cmax [3] of the same molecule?
The Cmax was 600 nM.

What about the Activity (Mus musculus [4]) of the same molecule?
The Activity was “Active”.

And the AUC [5]?
The AUC was 3.2 µM·h.

What about the IC50 (NIH-H) of the same molecule?
The IC50 was 1.3 nM.

And the Cmax [6]?
Its Cmax is 700 nM.

What about the bioavailability [7] of the same molecule?
The bioavailability was 34%.

And the Activity (Mus musculus [8])?
The Activity was “Dose-dependent effect”.

What about the Activity (Mus musculus [9]) of the same molecule?
Its Activity is “Non-toxic”.

What about the Cmax [10] of the same molecule?
Its Cmax is 18000 nM.

And the bioavailability [11]?
Its bioavailability is 34%.

And the AUC [12]?
Its AUC is 1.8 µM·h.

What about the AUC [13] of the same molecule?
Its AUC is 82 µM·h.

What about the Cmax [14] of the same molecule?
The Cmax was 1500 nM.

And the TGI (Mus musculus [15])?
The TGI was “Active”.

What about the AUC [16] of the same molecule?
The AUC was 8.4 µM·h.

What about the bioavailability [17] of the same molecule?
The bioavailability was 34%.

And the bioavailability [18]?
The bioavailability was 34%.

What about the IC50 [1] of the same molecule?
Its IC50 is 1.4 nM.

What about the IC50 (Cytochrome P450 3A4) of the same molecule?
Its IC50 is 300 nM.

Which IC50 (NIH-H) does the source give for `Cn1cncc1C(C)(O)[C@@]12C[C@@H]1c1cccnc1[C@@H](N1CCN(C(=O)OC(C)(C)C)CC1)c1ccc(Cl)cc12` (stereo partly specified) here?
Its IC50 is 60 nM.

And the “Ratio IC50” value [19]?
Its value is over 30.

And the IC50 [1]?
The IC50 was 1.9 nM.

With `Cn1cncc1C(=O)C1=Cc2cccnc2[C@@H](N2CCN(C(=O)OC(C)(C)C)CC2)c2ccc(Cl)cc21` as the molecule, how does the IC50 [1] read?
The IC50 was over 18 nM.

For `Cn1cncc1[C@](C)(O)C1=Cc2cccnc2[C@@H](N2CCN(C(=O)OC3CCCC3)CC2)c2ccc(Cl)cc21`, which IC50 (NIH-H) is on record?
Its IC50 is 32 nM.

And the IC50 [1]?
The IC50 was 0.6 nM.

Which results are given for `CC(C)OC(=O)N1CCN([C@H]2c3ccc(Cl)cc3C([C@](C)(O)c3cncn3C)=Cc3cccnc32)CC1`?
IC50 (NIH-H): 2 nM; IC50 [1]: 0.2 nM

For `Cn1cncc1[C@](C)(O)C1=Cc2cccnc2[C@@H](N2CCN(C(=O)OC(C)(C)C)CC2)c2ccc(Cl)cc21`, which AUC(0-t) at 6 h [20] is on record?
The AUC(0-t) at 6 h was 3.1 µM·h.

What about the IC50 (NIH-H) of the same molecule?
Its IC50 is 30 nM.

And the IC50 [1]?
The IC50 was 2.6 nM.

For `Cn1cncc1[C@](C)(O)C1=Cc2cccnc2[C@@H](N2CCN(C(=O)NC3CCCCC3)CC2)c2ccc(Cl)cc21`, which IC50 (NIH-H) is on record?
The IC50 was 1.7 nM.

What about the IC50 [1] of the same molecule?
Its IC50 is 0.4 nM.
